# Results: patent US8680052B1, “Methods of treating, reducing the incidence of, and/or preventing ischemic events” (The Medicines Company, priority 2013, dated 2014)
# Where two headings read alike, the source gives them in different places.
# Tests used:
# [1] = system: patients with atherosclerosis undergoing PCI
# Protocol: The protocol called for aspirin (75 to 325 mg) to be administered to all patients. […] The choice of a periprocedural anticoagulant (bivalirudin, unfractionated heparin, low-molecular-weight heparin, or fondaparinux) was also at the discretion of the investigator. Glycoprotein IIb/IIIa inhibitors were allowed only as rescue therapy during PCI to treat new or persistent thrombus formation, slow or no reflow, side-branch compromise, dissection, or distal embolization. The investigator at the site determined the protocol for management of the arterial sheath.
# The inclusion criteria for the trial were men or nonpregnant women, 18 years of age or older with coronary atherosclerosis who required PCI for stable angina, a non-ST-segment elevation acute coronary syndrome, or ST-segment elevation myocardial infarction (STEMI). Patients were required to provide written informed consent.
# Major exclusion criteria were receipt of a P2Y12 inhibitor or abciximab at any time in the 7 days before randomization and receipt of eptifibatide or tirofiban or fibrinolytic therapy in the 12 hours before randomization.
# The primary efficacy end point was the composite rate of death from any cause, myocardial infarction, IDR, or stent thrombosis in the 48 hours after randomization in the modified intention-to-treat population (which comprised patients who actually underwent PCI and received the study drug). […] The key secondary end point was the incidence of stent thrombosis at 48 hours. This end point included definite stent thrombosis, defined according to the criteria of the Academic Research Consortium, or intraprocedural stent thrombosis, which was assessed, with group assignments concealed, at an angiographic core laboratory (Cardiovascular Research Foundation). Intraprocedural stent thrombosis was defined as any new or worsened thrombus related to the stent procedure that was confirmed angiographically. Events of death, myocardial infarction, IDR, and stent thrombosis that occurred during the first 30 days after randomization were adjudicated by the clinical events committee at the Duke Clinical Research Institute. The study adhered to the universal definition of myocardial infarction for myocardial infarction unrelated to PCI but expanded on the definition of PCI-related myocardial infarction.
# The numbers and percentages of patients within each analysis population (modified intention-to-treat, intention-to-treat, and safety) were summarized according to treatment group. The primary efficacy analysis of the rate of the composite end point of death from any cause, myocardial infarction, IDR, or stent thrombosis (with all events adjudicated by the clinical events committee) in the 48 hours after randomization was conducted in the modified intention-to-treat population. The primary safety analysis was conducted in the safety population, which comprised all patients who underwent randomization and received at least one dose of the study drug; patients were classified according to the actual treatment received. All calculations and statistical analyses were performed with the use of SAS software, version 9.2.
# [2] = system: patients with atherosclerosis undergoing PCI; type: in vivo; conditions: for Agitation (Psychiatric disorders) / Chest Pain (General disorders and administration site conditions) / Diarrhea (Gastrointestinal disorders) / Dyspnea (Respiratory, thoracic, and mediastinal disorders) / Procedural Pain (Injury, poisoning, and procedural complications): treatment emergent adverse event
# Protocol: The primary safety end point was severe bleeding not related to coronary-artery bypass grafting, according to the Global Use of Strategies to Open Occluded Coronary Arteries (GUSTO) criteria, at 48 hours. Several other bleeding definitions were also applied.
# [3] = 48 hours, ITT, Cangrelor vs Clopidogrel
# [4] = 48 hours, ITT, rate in parentheses
# [5] = 48 hours, cangrelor vs clopidogrel
# [6] = 48 hours, modified intention-to-treat, Cangrelor vs Clopidogrel
# [7] = 30 days, cangrelor vs clopidogrel
# [8] = 30 days, modified intention-to-treat population
# [9] = 30 days, modified intention-to-treat, Cangrelor vs Clopidogrel
# [10] = 48 hours, Non-CABG Related Bleeding, Safety, Cangrelor vs Clopidogrel
# [11] = 48 hours, Non-CABG Related Bleeding, Safety, n/N
# [12] = 48 hours, Non-CABG Related Bleeding, Safety, rate in parentheses
# [13] = 48 hours, Non-CABG Related, Safety, Cangrelor vs Clopidogrel
# [14] = 48 hours, Non-CABG Related, Safety, n/N
# [15] = 48 hours, Non-CABG Related, Safety, rate in parentheses
# [16] = 48 hours, non-CABG-related, safety population, Cangrelor vs Clopidogrel
# [17] = 48 hours, safety population, n/N
smiles,measurement,setting,value
"CSCCNc1nc(SCCC(F)(F)F)nc2c1ncn2[C@@H]1O[C@H](COP(=O)(O)OP(=O)(O)C(Cl)(Cl)P(=O)(O)O)[C@@H](O)[C@H]1O [Cangrelor, cangrelor]","odds ratio, primary end point",[1]; 300-mg loading dose of clopidogrel,0.84
same,"odds ratio, primary end point",[1]; 600-mg loading dose of clopidogrel,0.77
same,number needed to treat to prevent one primary end-point event,[1]; 48 hours,84
same,rate of stent thrombosis (key secondary efficacy end point),[1]; 48 hours,0.8%
same,Death OR,[1]; [3],0.95
same,Death/MI OR,[1]; [3],0.80
same,Death/MI/IDR OR,[1]; [3],0.80
same,Death/MI/IDR/ST OR,[1]; [3],0.79
same,Death/MI/IDR/ST/GUSTO Severe Bleeding (NACE) OR,[1]; [3],0.80
same,Death/MI/ST OR,[1]; [3],0.79
same,Death/Q-wave MI/IDR OR,[1]; [3],0.77
same,Death/ST OR,[1]; [3],0.67
same,IDR OR,[1]; [3],0.76
same,MI OR,[1]; [3],0.80
same,Q-wave MI OR,[1]; [3],0.61
same,Stent thrombosis OR,[1]; [3],0.62
same,Death,"[1]; 48 hours, ITT, n/N",20/5573
same,Death/MI,"[1]; 48 hours, ITT, n/N",222/5573
same,Death/MI/IDR,"[1]; 48 hours, ITT, n/N",233/5573
same,Death/MI/IDR/ST,"[1]; 48 hours, ITT, n/N",260/5573
same,"Death/MI/IDR/ST/GUSTO Severe Bleeding (Net Adverse Clinical Events, NACE)","[1]; 48 hours, ITT, n/N",267/5573
same,Death/MI/ST,"[1]; 48 hours, ITT, n/N",251/5573
same,Death/Q-wave MI/IDR,"[1]; 48 hours, ITT, n/N",52/5573
same,Death/ST,"[1]; 48 hours, ITT, n/N",61/5573
same,IDR,"[1]; 48 hours, ITT, n/N",29/5573
same,MI,"[1]; 48 hours, ITT, n/N",207/5573
same,Q-wave MI,"[1]; 48 hours, ITT, n/N",11/5573
same,Stent thrombosis,"[1]; 48 hours, ITT, n/N",46/5573
same,Death,[1]; [4],(0.4)
same,Death/MI,[1]; [4],(4.0)
same,Death/MI/IDR,[1]; [4],(4.2)
same,Death/MI/IDR/ST,[1]; [4],(4.7)
same,"Death/MI/IDR/ST/GUSTO Severe Bleeding (Net Adverse Clinical Events, NACE)",[1]; [4],(4.8)
same,Death/MI/ST,[1]; [4],(4.5)
same,Death/Q-wave MI/IDR,[1]; [4],(0.9)
same,Death/ST,[1]; [4],(1.1)
same,IDR,[1]; [4],(0.5)
same,MI,[1]; [4],(3.7)
same,Q-wave MI,[1]; [4],(0.2)
same,Stent thrombosis,[1]; [4],(0.8)
same,"odds ratio, stent thrombosis",[1]; [5],0.62
same,"odds ratio, primary composite efficacy end point","[1]; 48 hours, crude analysis, cangrelor vs clopidogrel",0.79
same,"odds ratio, primary composite efficacy end point","[1]; 48 hours, logistic regression adjusted for baseline status and clopidogrel loading dose, cangrelor vs clopidogrel",0.78
same,"rate of primary composite efficacy end point (death from any cause, myocardial infarction, IDR, or stent thrombosis)","[1]; 48 hours, modified intention-to-treat",4.7%
same,"Death from any cause, Odds Ratio (95% CI)",[1]; [6],1.00 (0.52-1.92)
same,"Death from cardiovascular causes, Odds Ratio (95% CI)",[1]; [6],1.00 (0.52-1.92)
same,"Death or stent thrombosis, Odds Ratio (95% CI)",[1]; [6],0.67 (0.48-0.94)
same,"Death, Q-wave myocardial infarction, or ischemia-driven revascularization, Odds Ratio (95% CI)",[1]; [6],0.76 (0.53-1.11)
same,Death/MI OR (95% CI),[1]; [6],"0.80 (0.67, 0.96)"
same,Death/MI/Definite ST OR (95% CI),[1]; [6],"0.80 (0.66, 0.95)"
same,Death/MI/IDR OR (95% CI),[1]; [6],"0.80 (0.67, 0.95)"
same,Death/MI/IDR/Definite ST OR (95% CI),[1]; [6],"0.80 (0.67, 0.95)"
same,Death/MI/ST OR (95% CI),[1]; [6],"0.79 (0.66, 0.94)"
same,Definite ST OR (95% CI),[1]; [6],"0.54 (0.27, 1.10)"
same,"Ischemia-driven revascularization, Odds Ratio (95% CI)",[1]; [6],0.74 (0.45-1.20)
same,"Key secondary end point: stent thrombosis, Odds Ratio (95% CI)",[1]; [6],0.62 (0.43-0.90)
same,"Myocardial infarction, Odds Ratio (95% CI)",[1]; [6],0.80 (0.67-0.97)
same,"Net adverse clinical events, Odds Ratio (95% CI)",[1]; [6],0.80 (0.68-0.94)
same,"Q-wave myocardial infarction, Odds Ratio (95% CI)",[1]; [6],0.61 (0.29-1.29)
same,"Primary end point: death from any cause, myocardial infarction, ischemia-driven revascularization, or stent thrombosis, Odds Ratio (95% CI)","[1]; 48 hours, modified intention-to-treat, Cangrelor vs Clopidogrel, logistic regression adjusted for baseline status and clopidogrel loading dose",0.78 (0.66-0.93)
same,net rate of adverse clinical events (primary efficacy plus primary safety end point),"[1]; 48 hours, post hoc",4.8%
same,"odds ratio, net adverse clinical events","[1]; 48 hours, post hoc, cangrelor vs clopidogrel",0.80
same,Stent thrombosis,[1]; 30 days,1.3%
same,rate of the composite efficacy end point,[1]; 30 days,6.0%
same,"odds ratio, composite efficacy end point",[1]; [7],0.85
same,"odds ratio, stent thrombosis",[1]; [7],0.68
same,Death from any cause,[1]; [8],(1.1) percent
same,"Death from any cause, myocardial infarction, ischemia-driven revascularization, or stent thrombosis",[1]; [8],(6.0) percent
same,Death from cardiovascular causes,[1]; [8],(0.9) percent
same,"Death from any cause, Odds Ratio",[1]; [9],1.09
same,"Death from cardiovascular causes, Odds Ratio",[1]; [9],1.04
same,"Ischemia-driven revascularization, Odds Ratio",[1]; [9],0.85
same,"Myocardial infarction, Odds Ratio",[1]; [9],0.82
same,"Q-wave myocardial infarction, Odds Ratio",[1]; [9],0.63
same,"Stent thrombosis, Odds Ratio",[1]; [9],0.68
same,"Death from any cause, myocardial infarction, ischemia-driven revascularization, or stent thrombosis, Odds Ratio","[1]; 30 days, modified intention-to-treat, Cangrelor vs Clopidogrel, adjusted logistic regression",0.85
same,"odds ratio, intraprocedural stent thrombosis",[1]; cangrelor vs clopidogrel,0.65
same,"odds ratio, procedural complications",[1]; cangrelor vs clopidogrel,0.74
same,"odds ratio, rescue therapy with a glycoprotein IIb/IIIa inhibitor",[1]; cangrelor vs clopidogrel,0.65
same,odds of an ischemic event lower than with clopidogrel,[1]; in vivo,22%
same,odds of stent thrombosis lower than with clopidogrel,[1]; in vivo,38%
same,rate of intraprocedural stent thrombosis,[1]; in vivo,0.6%
same,rate of procedural complications,[1]; in vivo,3.4%
same,use of rescue therapy with a glycoprotein IIb/IIIa inhibitor,[1]; in vivo,2.3%
same,"odds ratio, primary end point",[1]; infusion for 129 minutes or less,0.85
same,"odds ratio, primary end point",[1]; infusion for more than 129 minutes,0.72
same,"odds ratio, primary end point",[1]; patients who received the loading dose during or after PCI,0.79
same,"odds ratio, primary end point",[1]; patients who received the loading dose immediately before PCI,0.80
same,rate of GUSTO-defined severe bleeding (primary safety end point),[2]; 48 hours,0.16%
same,BARC criteria Type 3 OR,[2]; [10],1.69
same,BARC criteria Type 3a OR,[2]; [10],2.75
same,BARC criteria Type 3b OR,[2]; [10],1.12
same,BARC criteria Type 3c OR,[2]; [10],2.00
same,BARC criteria Type 3,[2]; [11],22/5529
same,BARC criteria Type 3a,[2]; [11],11/5529
same,BARC criteria Type 3b,[2]; [11],9/5529
same,BARC criteria Type 3c,[2]; [11],2/5529
same,BARC criteria Type 3,[2]; [12],(0.4)
same,BARC criteria Type 3a,[2]; [12],(0.2)
same,BARC criteria Type 3b,[2]; [12],(0.2)
same,BARC criteria Type 3c,[2]; [12],(0.0)
same,ACUITY criteria Major bleeding OR,[2]; [13],1.72
same,ACUITY criteria Major without ≧ 5 cm hematoma OR,[2]; [13],1.62
same,ACUITY criteria Minor bleeding OR,[2]; [13],1.42
same,ACUITY criteria Major bleeding,[2]; [14],235/5529
same,ACUITY criteria Major without ≧ 5 cm hematoma,[2]; [14],42/5529
same,ACUITY criteria Minor bleeding,[2]; [14],653/5529
same,ACUITY criteria Major bleeding,[2]; [15],(4.3)
same,ACUITY criteria Major without ≧ 5 cm hematoma,[2]; [15],(0.8)
same,ACUITY criteria Minor bleeding,[2]; [15],(11.8)
same,"odds ratio, GUSTO-defined severe bleeding",[2]; [5],1.50
same,"GUSTO-defined moderate bleeding, Odds Ratio (95% CI)",[2]; [16],1.69 (0.85-3.37)
same,"GUSTO-defined severe or life-threatening bleeding, Odds Ratio (95% CI)",[2]; [16],1.50 (0.53-4.22)
same,"GUSTO-defined severe or moderate bleeding, Odds Ratio (95% CI)",[2]; [16],1.63 (0.92-2.90)
same,"TIMI-defined major bleeding, Odds Ratio (95% CI)",[2]; [16],1.00 (0.29)-3.45)
same,"TIMI-defined major or minor bleeding, Odds Ratio (95% CI)",[2]; [16],1.75 (0.73-4.18)
same,"TIMI-defined minor bleeding, Odds Ratio (95% CI)",[2]; [16],3.00 (0.81-11.10)
same,"Any blood transfusion, Odds Ratio (95% CI)","[2]; 48 hours, safety population, Cangrelor vs Clopidogrel",1.56 (0.83-2.93)
same,adverse events that led to discontinuation of the study drug,[2]; in vivo,0.5%
same,rate of adverse events related to treatment,[2]; in vivo,20.2%
same,transient dyspnea,[2]; in vivo,1.2%
same,Agitation (Psychiatric disorders),"[2]; 48 hours, safety population",(0.2) %
same,Chest Pain (General disorders and administration site conditions),"[2]; 48 hours, safety population",(1.0) %
same,Diarrhea (Gastrointestinal disorders),"[2]; 48 hours, safety population",(0.3) %
same,"Dyspnea (Respiratory, thoracic, and mediastinal disorders)","[2]; 48 hours, safety population",(1.2) %
same,"Procedural Pain (Injury, poisoning, and procedural complications)","[2]; 48 hours, safety population",(0.1) %
same,Agitation (Psychiatric disorders),[2]; [17],11/5529
same,Chest Pain (General disorders and administration site conditions),[2]; [17],55/5529
same,Diarrhea (Gastrointestinal disorders),[2]; [17],15/5529
same,"Dyspnea (Respiratory, thoracic, and mediastinal disorders)",[2]; [17],64/5529
same,"Procedural Pain (Injury, poisoning, and procedural complications)",[2]; [17],4/5529
